“And” between values parts separate entries of the source, which are not always exact repeats. Equal entries are not always repeated.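 All cell lines were grown in 96-well plates and treated with compound for 48 hours. At the GI50, growth is halved. TGI marks complete inhibition of growth.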
Key:
Test in all cases: inhibition of tumour cell growth, NCI panel, 48 h
HL-60(TB) leukemia = tested on: HL-60(TB) leukemia
K-562 leukemia = tested on: K-562 leukemia
DLD-1 colon = tested on: DLD-1 colon
SF-295 CNS = tested on: SF-295 CNS
RXF 393 renal = tested on: RXF 393 renal
TK-10 renal = tested on: TK-10 renal
A549 NSCLC = tested on: A549 NSCLC
LXFL 529 NSCLC = tested on: LXFL 529 NSCLC
UACC-62 melanoma = tested on: UACC-62 melanoma
MCF7 breast = tested on: MCF7 breast

Row | Structure (SMILES) | TGI (HL-60(TB) leukemia) | TGI (K-562 leukemia) | TGI (DLD-1 colon) [µM] | TGI (SF-295 CNS) | TGI (RXF 393 renal) | TGI (TK-10 renal) | TGI (A549 NSCLC) | TGI (LXFL 529 NSCLC) [µM] | TGI (UACC-62 melanoma) | GI50 (MCF7 breast) | TGI (MCF7 breast) | GI50 (HL-60(TB) leukemia) | GI50 (K-562 leukemia) | GI50 (DLD-1 colon) [µM] | GI50 (SF-295 CNS) | GI50 (RXF 393 renal) | GI50 (TK-10 renal) | GI50 (A549 NSCLC) [µM] | GI50 (UACC-62 melanoma) | GI50 (LXFL 529 NSCLC) [µM]
1 | CC(C(=O)c1ccc(Cl)cc1)C1OC(=O)C(Cl)=C1Cl (stereo unspecified) | 47.6 µM | 58.8 µM | 49.9 | > 100 µM | 35.4 µM | > 100 µM | > 100 µM | 40.6 | 46.7 µM | – | – | – | – | – | – | – | – | – | – | –
2 | CC(CN1CCN(CC(C)Nc2ccnc3cc(Cl)ccc23)CC1)Nc1ccnc2cc(Cl)ccc12 (stereo unspecified) | 19.3 µM | > 100 µM | 41.1 | 51.2 µM | 14.7 µM | 49.2 µM | > 57 µM | 30.7 | 32.5 µM | 8.29 µM | > 100 µM | – | – | – | – | – | – | – | – | –
3 | COc1ccc(Cl)cc1NC(=O)c1cccc([N+](=O)[O-])c1O | > 69.6 µM | > 100 µM | > 100 | 55.3 µM | 53.2 µM | > 100 µM | 45.2 µM | > 100 | 24.3 µM | – | 66.2 µM | – | – | – | – | – | – | – | – | –
4 | CC1CCP(=O)(c2ccccc2)CC1 (stereo unspecified) | > 100 µM | > 100 µM | > 100 | > 100 µM | > 100 µM | > 100 µM | > 100 µM | > 100 | > 100 µM | – | – | – | – | – | – | – | – | – | – | –
5 | CCc1cccc(C(C)CC)c1NC(=O)C(=O)C(CC(=O)Nc1ccc(Cl)c(Cl)c1)C(=O)OC (stereo unspecified) | > 100 µM | > 100 µM | > 100 | > 100 µM | > 100 µM | > 100 µM | > 100 µM | > 100 | 18.9 µM | – | – | – | – | – | – | – | – | – | – | –
6 | CCCCN(CCCC)C(=O)C(=O)C(C)C(=O)CC (stereo unspecified) | > 100 µM | > 100 µM | > 100 | > 100 µM | – | > 100 µM | > 100 µM | > 100 | > 100 µM | – | – | – | – | – | – | – | – | – | – | –
7 | Cn1c2ccccc2c(=O)c2c([N+](=O)[O-])ccc(NCCN)c21 | 22.9 µM | – | – | 25 µM | 23.3 µM | 28.5 µM | 25.5 µM | 21.1 | 29.6 µM | – | – | – | – | – | – | – | – | – | – | –
8 | O=C1C(=O)c2ccccc2C(O)=C1CC=C(Cl)Cl | 37.8 µM and > 76.6 µM and 56.6 µM | > 41.5 µM and 175 µM and > 100 µM | 178 | 75.5 µM and 137 µM | 76.9 µM and 203 µM and 97.9 µM | 98.6 µM and 195 µM and > 100 µM | > 78.7 µM and 129 µM and > 100 µM | – | 40 µM and 81.7 µM and > 100 µM | 5.15 µM and 4.73 µM | > 58.5 µM and 131 µM and > 100 µM | 3.24 µM and 13.3 µM | 0.987 µM and 3.19 µM | 7.21 | 9.87 µM and 7.86 µM | 13.8 µM and 13.7 µM | 25.7 µM and 20.7 µM | 5.63 | 6.1 µM and 8.42 µM | –
9 | c1cc[c]([Sn]([S]c2cccc3cccnc23)([S]c2cccc3cccnc23)[c]2ccccc2)cc1 | 0.563 µM | – | – | 1.4 µM | 0.23 µM | 0.417 µM | 1.38 µM | 0.211 | 0.43 µM | – | – | 0.172 µM | – | – | 0.353 µM | 0.109 µM | 0.206 µM | 0.363 | 0.186 µM | 0.0782
10 | CCCCCCCCCCCC(O)=C1C(=O)CC(O)CC1=O (stereo unspecified) | 58.7 µM | > 100 µM | – | > 100 µM | > 100 µM | > 100 µM | > 100 µM | > 100 | > 100 µM | – | – | – | – | – | – | – | – | – | – | –
11 | CCCCCCCCCCCC(=O)c1c(O)cccc1O | 43.6 µM | > 100 µM | 33.8 | 31.4 µM | 40.4 µM | 92.4 µM | 33.7 µM | 32.6 | 34.3 µM | – | – | – | – | – | – | – | – | – | – | –
12 | COc1ccc(C(=O)C(C(=O)C(=O)Nc2nccs2)c2ccc(OC)cc2)cc1 (stereo unspecified) | – | > 100 µM | > 100 | – | > 100 µM | > 100 µM | > 100 µM | > 100 | > 100 µM | – | – | – | – | – | – | – | – | – | – | –
13 | COc1cc(Cl)c2c3c(c(C(=O)c4ccccc4)oc13)CCC2 | > 100 µM | > 100 µM | > 100 | > 100 µM | > 100 µM | > 100 µM | > 100 µM | > 100 | > 100 µM | – | – | – | – | – | – | – | – | – | – | –
14 | CCCCCC(O)(CCCCC)CCCCCCCCC1=C(O)c2[nH]c(=O)ccc2C(=O)C1=O | 23.6 µM | 26.7 µM | 19.7 | 16.4 µM | 21.4 µM | – | 26.3 µM | 15.7 | 10.9 µM | – | – | – | – | – | – | – | – | – | – | –
15 | BrC1=CC=C2NCCCCCCN=C3C=CC(Br)=CC=C3NCCCCCCN=C2C=C1 | > 25.5 µM | > 25.5 µM | > 25.5 | > 25.5 µM | > 25.5 µM | > 25.5 µM | > 25.5 µM | – | > 25.5 µM | – | – | – | – | – | – | – | – | – | – | –
16 | c1cc(-c2cn[nH]c2)cc(-c2cn[nH]c2)c1 | 66.6 µM | > 100 µM | > 100 | > 100 µM | 36.8 µM | > 100 µM | 69.5 µM | – | 35.6 µM | – | – | – | – | – | – | – | – | – | – | –
17 | Cc1nc(Nc2ccccc2)sc1C(=O)NNc1ccc([N+](=O)[O-])cc1[N+](=O)[O-] | 41.2 µM | 60.1 µM | > 100 | > 100 µM | 78.5 µM | > 100 µM | > 100 µM | > 100 | > 100 µM | – | – | – | – | – | – | – | – | – | – | –
18 | COC(=O)/C(=C/c1ccc(OC)cc1)NC(=O)c1ccccc1 | > 100 µM | > 100 µM | > 100 | > 100 µM | > 100 µM | > 100 µM | > 100 µM | > 100 | > 100 µM | – | – | – | – | – | – | – | – | – | – | –
19 | N[C@@H]1CCCC[C@@H]1N.O=C([O-])CN(CP(=O)([O-])[O-])CP(=O)([O-])[O-].[Pt+2] | > 100 µM | > 100 µM | > 100 | > 100 µM | – | > 100 µM | > 100 µM | > 100 | > 100 µM | – | – | > 100 µM | > 100 µM | > 100 | > 100 µM | – | > 100 µM | > 100 | > 100 µM | > 100
20 | N#CC(C(=N/NC(N)=S)/C(=N/NC(N)=S)C(C#N)c1ccc(Cl)cc1)c1ccc(Cl)cc1 (stereo unspecified) | – | > 100 µM | > 100 | > 100 µM | > 100 µM | > 100 µM | > 100 µM | > 100 | > 100 µM | – | – | – | – | – | – | – | – | – | – | –
21 | Cc1cccc(C)c1NC(=O)CCC(=O)NC(N)=S | > 100 µM | > 100 µM | > 100 | > 100 µM | > 100 µM | > 100 µM | > 100 µM | > 100 | > 100 µM | – | – | – | – | – | – | – | – | – | – | –
22 | C1=C(c2ccccc2)SC=C(c2ccccc2)S1 | > 100 µM | 89.3 µM | – | > 100 µM | 48.1 µM | > 100 µM | > 100 µM | – | > 100 µM | – | 48.2 µM | – | – | – | – | – | – | – | – | –
